Where a name gives a salt, the structure may show the parent alone. Read-outs that look alike come from different tables or passages of the source.
How the values were obtained:
[1] = molecular target: Dog Kidney Na+, K+-ATPase (Canis lupus familiaris, UniProt P50997); experiment: Inhibition of the enzymatic activity of purified Na+,K+-ATPase (hydrolysis of 32P-ATP); assay type: biochemical
[2] = system: anesthetized guinea-pig; experiment: Inotropic effect and lethal dose, slow intravenous infusion in anesthetized guinea-pig; assay type: in vivo; parameters: Maximum dose infused: unit not given here; settings: for Emax / ED80 / ED (max): Cavia porcellus, iv, 1.5 h; for Emax / ED80 / ED (max) / Dead/treated / Maximum dose infused: slow i.v. infusion over 90 minutes; for Emax / ED80 / ED (max) / % decrease from Emax after 20 min from the end of the infusion / Dead/treated: anesthetized guinea-pig; for Emax: maximum increase in contractile force, read-out: Emax % increase in +dP/dTmax; for ED80: read-out: ED80 (inotropic potency, dose increasing +dP/dTmax by 80%); for ED (max): read-out: EDmax (dose inducing maximum positive inotropic effect); for % decrease from Emax after 20 min from the end of the infusion: duration of the inotropic effect; for Maximum dose infused: maximum dose infused in the survived animals
[3] = dog kidney enzyme, hydrolysis of 32P-ATP in presence and absence of compound, read-out: Na+, K+-ATPase Inhibition IC50
[4] = read-out: Na+, K+-ATPase Inhibition IC50

CC12CCC3C(CC(=O)C4CC(=NOC5CCNC5)CCC43C)C1CCC2=O (mixture of isomers) [I-ae, (E,Z) 3-[3-(R)-Pyrrolidinyl]oxyiminoandrostane-6,17-dione hydrochloride]
IC50 ([1]; Na+, K+-ATPase Inhibition IC50): 26 nM | Emax [2]: 147% | ED80 [2]: 2.28 µmol/kg | ED (max) [2]: 4.26 µmol/kg | % decrease from Emax after 20 min from the end of the infusion [2]: 74% | Dead/treated [2]: 0/3 | Maximum dose infused [2]: 6.4

COC(=O)C1CC2C3CCC(=O)C3(C)CCC2C2(C)CCC(=NOC3CCNC3)CC12 (mixture of isomers) [I-au, (Z,E) 3-(3-(R)-Pyrrolidinyloxyimino)-6α-methoxycarbonylandrostane-17-one hydrochloride]
IC50 [1, 3]: 160 nM | Emax [2]: 164% | ED80 [2]: 11 µmol/kg | ED (max) [2]: 23.3 µmol/kg | % decrease from Emax after 20 min from the end of the infusion [2]: 58% | Dead/treated [2]: 0/4 | Maximum dose infused [2]: 50.3

CC12CCC3C(CC(=C(F)F)C4CC(=NOC5CCNC5)CCC43C)C1CCC2=O (mixture of isomers) [I-az, (E,Z) 3-[3-(R)-Pyrrolidinyl]oxyimino-6-difluoromethyleneandrostan-17-one hydrochloride]
IC50 ([1]; Na+, K+-ATPase Inhibition IC50): 21 nM | Emax [2]: 244% | ED80 [2]: 6.69 µmol/kg | ED (max) [2]: 18.4 µmol/kg | % decrease from Emax after 20 min from the end of the infusion [2]: 20% | Dead/treated [2]: 0/3 | Maximum dose infused [2]: 25.2

CON=C1CC2C3CCC(=O)C3(C)CCC2C2(C)CCC(=NOC3CCNC3)CC12 (single isomer, unassigned) [I-bd, hydrochloride]
IC50 ([1]; Na+, K+-ATPase Inhibition IC50): 18 nM

CON=C1CC2C3CCC(=O)C3(C)CCC2C2(C)CCC(=NOC3CCNC3)CC12O (single isomer, unassigned) [I-bv]
IC50 [1, 3]: 150 nM

CON=C1CC2C3CCC(=O)C3(C)CCC2C2(C)CCC(=NOC3CCN(C)C3)CC12O (single isomer, unassigned) [I-ca]
IC50 [1, 3]: 6000 nM

CC12CCC3C(C(=O)CC4CC(=NOC5CCNC5)CCC43C)C1CCC2=O (single isomer, unassigned) [I-cb]
IC50 ([1]; Na+, K+-ATPase Inhibition IC50): 89 nM

CC12CCC3C(C(=O)CC4CC(=NOC5CCNC5)CCC43C)C1CCC2=O (single isomer, unassigned) [I-cc]
IC50 ([1]; Na+, K+-ATPase Inhibition IC50): 570 nM

CC12CCC3C(C(O)C(CO)C4CC(=NOC5CCNC5)CCC43C)C1CCC2=O (single isomer, unassigned) [I-dl, hydrochloride]
IC50 ([1]; Na+, K+-ATPase Inhibition IC50): 170 nM

C[C@]12CC/C(=N\OC3CCNCC3)CC1C(=O)C[C@@H]1[C@@H]2CC[C@]2(C)C(=O)CC[C@@H]12 (stereo partly shown) [I-aa, (E) 3-(4-Piperidyl)oxyiminoandrostane-6,17-dione hydrochloride]
IC50 ([1]; Na+, K+-ATPase Inhibition IC50): 4100 nM

C[C@H]1C[C@@H]2[C@H](CC[C@]3(C)C(=O)CC[C@@H]23)[C@@]2(C)CC/C(=N\O[C@@H]3CCNC3)CC12 (stereo partly drawn) [I-aw, (E) 3-[3-(R)-Pyrrolidinyl]oxyimino-6α-methylandrostane-17-one fumarate]
IC50 ([1]; Na+, K+-ATPase Inhibition IC50): 340 nM

C[C@H]1C[C@@H]2[C@H](CC[C@]3(C)C(=O)CC[C@@H]23)[C@@]2(C)CC/C(=N/O[C@@H]3CCNC3)CC12 (stereo partly drawn) [I-ax, (Z) 3-[3-(R)-Pyrrolidinyl]oxyimino-6α-methylandrostane-17-one hydrochloride]
IC50 ([1]; Na+, K+-ATPase Inhibition IC50): 260 nM

C=C1C[C@H]2[C@@H]3CCC(=O)[C@@]3(C)CC[C@@H]2[C@@]2(C)CC/C(=N/O[C@H]3CCNC3)C[C@]12O [I-bi, (Z) 3-[3′-(S)-Pyrrolidinyl]oxyimino-5α-hydroxy-6-methyleneandrostane-17-one fumarate]
IC50 ([1]; Na+, K+-ATPase Inhibition IC50): 6000 nM

C=C1C[C@H]2[C@@H]3CCC(=O)[C@@]3(C)CC[C@@H]2[C@@]2(C)CC/C(=N\O[C@H]3CCNC3)C[C@]12O [I-bj, (E) 3-[3′-(S)-Pyrrolidinyl]oxyimino-5α-hydroxy-6-methyleneandrostane-17-one fumarate]
IC50 ([1]; Na+, K+-ATPase Inhibition IC50): 480 nM

C=C1C[C@H]2[C@@H]3CCC(=O)[C@@]3(C)CC[C@@H]2[C@@]2(C)CC/C(=N/O[C@@H]3CCN(C)C3)C[C@]12O [I-bl, (Z) 3-[3′-(R)-(1-Methyl)pyrrolidinyl]oxyimino-5α-hydroxy-6-methyleneandrostane-17-one fumarate]
IC50 ([1]; Na+, K+-ATPase Inhibition IC50): 92000 nM

C=C1C[C@H]2[C@@H]3CCC(=O)[C@@]3(C)CC[C@@H]2[C@@]2(C)CC/C(=N\O[C@@H]3CCN(C)C3)C[C@]12O [I-bm, (E) 3-[3′-(R)-(1-Methyl)-pyrrolidinyl]oxyimino-5α-hydroxy-6-methyleneandrostane-17-one fumarate]
IC50 [1, 4]: 1400 nM

C=C1C[C@H]2[C@@H]3CCC(=O)[C@@]3(C)CC[C@@H]2[C@@]2(C)CC/C(=N/O[C@H]3CCN(C)C3)C[C@]12O [I-bn, (Z) 3-[3′-(S)-(1-Methyl)pyrrolidinyl]oxyimino)-5α-hydroxy-6-methyleneandrostane-17-one fumarate]
IC50 ([1]; Na+, K+-ATPase Inhibition IC50): 95000 nM

C=C1C[C@H]2[C@@H]3CCC(=O)[C@@]3(C)CC[C@@H]2[C@@]2(C)CC/C(=N\O[C@H]3CCN(C)C3)C[C@]12O [I-bo, (E) 3-[3′-(S)-(1-Methyl)pyrrolidinyl]oxyimino)-5α-hydroxy-6-methyleneandrostane-17-one fumarate]
IC50 ([1]; Na+, K+-ATPase Inhibition IC50): 21000 nM

CO/N=C1\C[C@H]2[C@@H]3CCC(=O)[C@@]3(C)CC[C@@H]2[C@@]2(C)CC/C(=N/O[C@H]3CCN(C)C3)C[C@]12O [I-bx, (Z) 3-[3′-(S)-(1-Methyl)pyrrolidinyl]oxyimino)-5α-hydroxy-6-(E)-methoxyiminoandrostane-17-one fumarate]
IC50 [1, 3]: 96000 nM

CO/N=C1\C[C@H]2[C@@H]3CCC(=O)[C@@]3(C)CC[C@@H]2[C@@]2(C)CC/C(=N\O[C@H]3CCN(C)C3)C[C@]12O [I-by, (E) 3-[3′(S)-(1-Methyl)-pyrrolidinyl]oxyimino)-5α-hydroxy-6-(E)-methoxyiminoandrostane-17-one fumarate]
IC50 [1, 3]: 12000 nM

CO/N=C1\C[C@H]2[C@@H]3CCC(=O)[C@@]3(C)CC[C@@H]2[C@@]2(C)CC/C(=N/O[C@@H]3CCN(C)C3)C[C@]12O [I-bz, (Z) 3-[3′-(R)-(1-Methyl)pyrrolidinyl]oxyimino)-5α-hydroxy-6-(E)-methoxyiminoandrostane-17-one fumarate]
IC50 [1, 3]: 94000 nM

C[C@@H]1CC2CC(=NO[C@@H]3CCNC3)CC[C@]2(C)[C@H]2CC[C@]3(C)C(=O)CC[C@H]3[C@H]12 (stereo partly drawn) [I-ck, (E,Z) 3-[3′-(R)-Pyrrolidinyl]oxyimino-7α-methylandrostane-17-one hydrochloride]
IC50 [1, 4]: 210 nM

CC1CC2CC(=NOC3CCNC3)CCC2(C)C2CCC3(C)C(=O)CCC3C12 [I-cm, (E) 3-[3′-(R)-Pyrrolidinyl]oxyimino-7β-methylandrostane-17-one hydrochloride]
IC50 ([1]; Na+, K+-ATPase Inhibition IC50): 140 nM

CC1CC2CC(=NOC3CCNC3)CCC2(C)C2CCC3(C)C(=O)CCC3C12 [I-cn, (Z) 3-[3′-(R)-Pyrrolidinyl]oxyimino-7β-methylandrostane-17-one hydrochloride]
IC50 ([1]; Na+, K+-ATPase Inhibition IC50): 340 nM

COC(=O)[C@@H]1CC2C/C(=N/O[C@@H]3CCNC3)CC[C@]2(C)[C@H]2CC[C@]3(C)C(=O)CC[C@H]3[C@H]12 (stereo partly drawn) [I-cq, (E) 3-[3′-(R)-Pyrrolidinyl]oxyimino-7α-methoxycarbonylandrostane-17-one hydrochloride]
IC50 [1, 4]: 960 nM

CN1CC[C@H](O/N=C2\CC[C@@]3(C)C(C2)[C@@H](CO)C(=O)[C@@H]2[C@@H]3CC[C@]3(C)C(=O)CC[C@@H]23)C1 (stereo partly drawn) [I-cu, (E,Z) 3-[3′-(S)-(1-Methyl)-pyrrolidinyl]oxyimino-6α-hydroxymethylandrostane-7,17-dione fumarate]
IC50 [1, 4]: 2600 nM

C[C@]12CC[C@H](OC(=O)C3CCNCC3)CC1C(=O)C[C@@H]1[C@@H]2CC[C@]2(C)C(=O)CC[C@@H]12 (stereo partly drawn) [I-cw, 3β-(4-Piperidinylcarbonyloxy)androstane-6,17-dione hydrochloride]
IC50 ([1]; Na+, K+-ATPase Inhibition IC50): 11000 nM

C[C@]12CC[C@H](OC(=O)C3CNC3)CC1C(=O)C[C@@H]1[C@@H]2CC[C@]2(C)C(=O)CC[C@@H]12 (stereo partly drawn) [I-cx, 3β-(3-Azetidincarbonyloxy)androstane-6,17-dione hydrochloride]
IC50 ([1]; Na+, K+-ATPase Inhibition IC50): 4200 nM

C[C@]12CC[C@@H](/C=C\[C@@H]3CCNC3)CC1C(=O)C[C@@H]1[C@@H]2CC[C@]2(C)C(=O)CC[C@@H]12 (stereo partly drawn) [I-de, 3α-[2-(Pyrrolidin-3-(S)-yl)-(Z)-vinyl]androstane-6,17-dione formate]
IC50 ([1]; Na+, K+-ATPase Inhibition IC50): 390 nM

CC12CCC3C(CC(=O)C4CC(C=CC5CCNCC5)CCC43C)C1CCC2=O (stereo not drawn) [I-dg, 3α-[2-(Pyperidin-4-yl)-(Z)-vinyl]androstane-6,17-dione formate]
IC50 [1, 3]: 890 nM

C[C@]12CC/C(=N/O[C@H]3CCNC3)CC1[C@@H](CO)C(=O)[C@@H]1[C@@H]2CC[C@]2(C)C(=O)CC[C@@H]12 (stereo partly drawn) [I-di, (Z)-3-[3-(S)-Pyrrolidinyl)oxyimino]-6α-hydroxymethylandrostane-7,17-dione fumarate]
IC50 ([1]; Na+, K+-ATPase Inhibition IC50): 210 nM

C[C@]12CC/C(=N\O[C@H]3CCNC3)CC1[C@@H](CO)C(=O)[C@@H]1[C@@H]2CC[C@]2(C)C(=O)CC[C@@H]12 (stereo partly drawn) [I-dj, (E)-3-[3-(S)-Pyrrolidinyl)oxyimino]-6α-hydroxymethylandrostane-7,17-dione fumarate]
IC50 ([1]; Na+, K+-ATPase Inhibition IC50, dog kidney enzyme, hydrolysis of 32P-ATP in presence and absence of compound): 36 nM

C[C@]12CCC(=NO[C@H]3CCNC3)C=C1/C(=N/O)C[C@@H]1[C@@H]2CC[C@]2(C)C(=O)CC[C@@H]12 [I-dv, (E,Z) 3-[3-(S)-Pyrrolidinyl]oxyimino-6-(E)-hydroxyiminoandrost-4-ene-17-one fumarate]
IC50 [1, 4]: 220 nM

(E) 3-[3-(R)-Pyrrolidinyl]oxyiminoandrostane-6,7-dione hydrochloride [I-af]
IC50 [1, 4]: 16 nM

Reference: patent US8536160B2, “Azaheterocyclyl derivatives of androstanes and androstenes as medicaments for cardiovascular disorders” (priority 2006, dated 2013)
